Measurements taken from PubChem BioAssay AID2124 (Sanford-Burnham Center for Chemical Genomics, 2009).
Records with an inconclusive call do not appear. The source made the active and inactive calls. The rule behind the calls is not given here; tested in MIN6 cells.

Experiment: cell-permeable autofluorescent compounds in GFP channel, dose response, artefact control, imaging, high-content imaging (AID 2124);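 note: cells exposed to compound for 48 hours before fixing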
Conditions: cells, GFP-channel autofluorescence, high-content imaging, at 10 µM; for z-score: stronger effect = higher value

SMILES	z-score	cell count
O=C(CC12CC3CC(CC(C3)C1)C2)NCC(=O)N1CCc2ccccc2C1	-0.33 (inactive)	2920 cells
COCCN(CCOC)Cc1cc(=O)oc2cc3c(cc12)CCC3	-0.38 (inactive)	3160 cells
COC(=O)c1cc(NC(=O)c2ccccc2)c(=O)oc1/C=C/Nc1ccc(Oc2ccccc2)cc1	0.11	3070 cells
COC(CNC(=O)c1ccc(Cn2c(=S)[nH]c3cc4c(cc3c2=O)OCO4)cc1)OC	-0.33 (inactive)	3340 cells
Nc1c(C(=O)N/N=C/c2ccccc2Cl)oc2nc(-c3ccccc3)cc(-c3ccco3)c12	-0.27 (inactive)	2970 cells
Cc1c(C(c2ccc([N+](=O)[O-])cc2)c2c(C)n(C)n(-c3ccccc3)c2=O)c(=O)n(-c2ccccc2)n1C	-0.39 (inactive)	3040 cells
CN(C)c1ccc(/C=C2\C(=N)N3C(=NC2=O)Sc2cc(S(C)(=O)=O)ccc23)cc1	-0.29 (inactive)	2790 cells
CCN1CCN(C2=CC3=CC(=C(C#N)C#N)CCC3CC2)CC1 (centres undefined)	1.63	3180 cells
CC(=O)N1CCN(Cc2nc3cc(NC(=O)c4ccccc4)ccc3n2C)CC1	-0.38 (inactive)	2960 cells
CCC(=O)OCC(=O)c1c(N)n(Cc2ccccc2)c(=O)n(C)c1=O	-0.33 (inactive)	2890 cells
CCN1/C(=C/C=C/c2oc3ccc4ccccc4c3[n+]2CC)Oc2ccc3ccccc3c21	1.7	330 cells
COc1cc(N2CCCC2)c(OC)cc1/C=C1/NC(=S)NC1=O	0.59	2940 cells
O=C(Cc1nc(-c2ccc([N+](=O)[O-])cc2)cs1)Nc1ccccc1	-0.39 (inactive)	2770 cells
O=C(NCCCN1CCCCCC1)C1CC(=O)N(C2CCCC2)C1 (centres undefined)	-0.33 (inactive)	3260 cells
COCCN1CN(S(=O)(=O)c2ccccc2)c2nc3ccccc3nc21	-0.38 (inactive)	3380 cells
CC1CC(C)CN(C(=O)c2cccc3c2-c2ccccc2C3=O)C1 (centres undefined)	-0.38 (inactive)	3240 cells
Clc1ccc2oc(-c3ccccn3)nc2c1	-0.24 (inactive)	2940 cells
CCC(=O)Nc1ccc(C(=O)OCC(=O)c2ccc(C)c([N+](=O)[O-])c2)cc1	-0.33 (inactive)	2960 cells
CC(C)(C)c1cc(C(=O)NCc2cccnc2)ccn1	-0.33 (inactive)	3450 cells

SMILES	z-score	cell count
CC1CCCN(c2nc3c(c(=O)n(C)c(=O)n3C)n2CCSc2nc3ccccc3s2)C1 (centres undefined)	-0.38 (inactive)	3180 cells
CC1CC(=O)C2=C(C1)OC(N)=C(C#N)C2c1coc2ccccc2c1=O (centres undefined)	-0.38 (inactive)	3180 cells
CCCCn1c(=O)[nH]c2nc3cc(N)ccc3nc2c1=O	-0.32 (inactive)	3540 cells
COc1cc(N2CCCC2)c(OC)cc1/C=C(/C#N)c1cccc(Br)c1	0.19	3340 cells
O=C(CNC(=O)c1ccco1)OCC(=O)c1ccccc1	-0.33 (inactive)	3180 cells
CN(C)c1ccc(C(=O)N/N=C/c2cc(Br)cc(Br)c2O)cc1	-0.38 (inactive)	2500 cells
COc1cccc(C(=O)CN2C(=O)C(C)(C)Oc3ccc(C(=O)N4CCCCCC4)cc32)c1	-0.33 (inactive)	3680 cells
CC1=CN2C(=N)/C(=C/c3ccc([N+](=O)[O-])o3)C(=O)N=C2S1	0.75	348 cells
Brc1ccc(Oc2nsnc2N2CCOCC2)cc1	-0.34 (inactive)	3270 cells
Nc1c(C(=O)O)sc2nc(-c3ccccc3)cc(-c3ccccc3)c12	-0.28 (inactive)	3320 cells
CCCN1C(=O)c2cccc3c(N4CCCCC4)ccc(c23)C1=O	0.28	3300 cells
C=CCNC(=O)c1c2c(nc3ccccc13)-c1ccccc1CC2	-0.39 (inactive)	3270 cells
O=C1S/C(=C\c2ccc(N3CCOCC3)o2)C(=O)N1Cc1ccc(F)cc1	1.17	665 cells
CCCCN1C(=O)C2(NNc3ccccc3O2)c2ccccc21 (centres undefined)	-0.31 (inactive)	2820 cells
CN1C(=S)N(c2cccnc2)C(=O)/C1=C\c1ccc(N(C)C)cc1	-0.22 (inactive)	3030 cells
Nc1ccc(-c2nc3nc(N)nc(N)c3nc2-c2ccc(N)cc2)cc1	-0.32 (inactive)	2980 cells
Cc1oc(C)c2c(=O)ccc3c(c12)OC(N)=C(C#N)C3c1ccccc1 (centres undefined)	-0.38 (inactive)	2830 cells
CCN1C(=O)CSc2ccc(C(=O)NCc3ccccc3OC)cc21	-0.33 (inactive)	2980 cells
O=C(Nc1ccon1)c1cccc(S(=O)(=O)N2CCCCC2)c1	-0.39 (inactive)	3190 cells

SMILES	z-score	cell count
CCCCNC(=S)NC(=O)c1ccc(Cl)cc1Cl	-0.39 (inactive)	3500 cells
CC(Sc1ccccc1)C(=O)NN=C1CCCCCC1 (centres undefined)	-0.39 (inactive)	2920 cells
COc1ccc(C2C=C(c3cccs3)Nc3nc(CCCO)nn32)cc1 (centres undefined)	-0.38 (inactive)	2650 cells
CCOC(=O)Cn1c2ccc(F)cc2c2nc(C)sc21	-0.39 (inactive)	2900 cells
CC(=O)Nc1sc(/C(C#N)=C\c2cccc(Cl)c2)nc1-c1ccc(C)cc1	1.12	3000 cells
O=C(CSc1ccc(-c2ccccc2)nn1)NCC1CCCO1 (centres undefined)	-0.38 (inactive)	2970 cells
O=C1S/C(=C\c2ccc(N3CCOCC3)o2)C(=O)N1Cc1c(F)cccc1Cl	2.04	1540 cells
CCc1cc(C(=O)OC)c(NC(=O)CC2Sc3ccc(C(F)(F)F)cc3NC2=O)s1 (centres undefined)	-0.39 (inactive)	2390 cells
COc1cc2c(cc1OC)-c1nncn1C(C)(C)C2	-0.32 (inactive)	3220 cells
N#CC1CC(c2ccc([N+](=O)[O-])cc2)=NN1c1ccc([N+](=O)[O-])cc1 (centres undefined)	-0.25 (inactive)	3490 cells
O=C(NCCN1CCCC1)C1(S(=O)(=O)c2ccc(Cl)cc2)CC1	-0.33 (inactive)	2860 cells
COc1cc(OC)cc(C(=O)Nc2cccc(C(C)=O)c2)c1	-0.39 (inactive)	3260 cells
COc1ccccc1NS(=O)(=O)c1cc([N+](=O)[O-])ccc1N/N=C/c1sc(N2CCOCC2)nc1-c1ccccc1	0.22	2550 cells
CC(=O)Nc1nc(-c2ccc(Br)s2)cs1	-0.39 (inactive)	3320 cells
Cc1ccc([N+](=O)[O-])cc1NC(=O)c1cccs1	-0.33 (inactive)	3030 cells
CCc1nnc(NC(=O)CCC(=O)NCc2ccccc2OC)s1	-0.38 (inactive)	2890 cells
O=S(=O)(Nc1cc2nc3ccccc3nc2n1Cc1ccccc1)c1ccc(Cl)cc1	0.09	777 cells
Cc1ccc(NC(=O)CCl)c(C)c1	-0.33 (inactive)	2480 cells
Cc1nn(-c2ccccc2)c(C)c1NC(=O)CCl	-0.33 (inactive)	1910 cells
